In publication PMC13253105, “Chemical inhibition of a CBASS anti-bacteriophage defense” (iScience, 2026):
Like-named read-outs stand apart in the source and are kept apart here. Where a SMILES comes first, the peptide text is derived from it. The star is where a group is joined. Cbz = O=C(OCc1ccccc1)*; Bn = c1ccc(C*)cc1

Legend:
[1] = system: PsCap5 in E. coli BL21 (DE3) cells; format: cell-based
Protocol: The same E. coli BL21 (DE3) cells carrying the PsCap5 expression plasmid from above were grown in LB medium with 50 μg/mL kanamycin at 37°C with 220 rpm shaking to an OD600 of ∼0.6 (1 cm pathlength). […] The bacterial cultures were then serially diluted from 10-1 to 10−6, and 5 μL of each was spotted onto LB agar petri dishes supplemented with kanamycin. After overnight incubation, the plates were photographed and colonies formed by viable cells were counted.

[2] = molecular target: LlCap5 (Lactococcus cremoris, UniProt A0A1E7G0A2); experiment: biochemical; parameters: species or system Lactococcus lactis
[3] = molecular target: PsCap5 (Pseudomonas syringae pv. actinidiae, UniProt A0A2P0QGK5); experiment: biochemical; details: for inhibition of PsCap5 in rescreening of the compound library: normalized DNA band intensity, threshold 0.25
[4] = molecular target: DpnI (Streptococcus pneumoniae serotype 4, UniProt P0A459); format: biochemical; details: 1 μL 100 μM inhibitor 20 in 10 μL buffer
[5] = molecular target: Cas9 (Streptococcus pyogenes serotype M1, UniProt Q99ZW2); format: biochemical; details: inhibitor 20 (100 µM)
Chain of Cas9 (Q99ZW2 whole entry, looked up): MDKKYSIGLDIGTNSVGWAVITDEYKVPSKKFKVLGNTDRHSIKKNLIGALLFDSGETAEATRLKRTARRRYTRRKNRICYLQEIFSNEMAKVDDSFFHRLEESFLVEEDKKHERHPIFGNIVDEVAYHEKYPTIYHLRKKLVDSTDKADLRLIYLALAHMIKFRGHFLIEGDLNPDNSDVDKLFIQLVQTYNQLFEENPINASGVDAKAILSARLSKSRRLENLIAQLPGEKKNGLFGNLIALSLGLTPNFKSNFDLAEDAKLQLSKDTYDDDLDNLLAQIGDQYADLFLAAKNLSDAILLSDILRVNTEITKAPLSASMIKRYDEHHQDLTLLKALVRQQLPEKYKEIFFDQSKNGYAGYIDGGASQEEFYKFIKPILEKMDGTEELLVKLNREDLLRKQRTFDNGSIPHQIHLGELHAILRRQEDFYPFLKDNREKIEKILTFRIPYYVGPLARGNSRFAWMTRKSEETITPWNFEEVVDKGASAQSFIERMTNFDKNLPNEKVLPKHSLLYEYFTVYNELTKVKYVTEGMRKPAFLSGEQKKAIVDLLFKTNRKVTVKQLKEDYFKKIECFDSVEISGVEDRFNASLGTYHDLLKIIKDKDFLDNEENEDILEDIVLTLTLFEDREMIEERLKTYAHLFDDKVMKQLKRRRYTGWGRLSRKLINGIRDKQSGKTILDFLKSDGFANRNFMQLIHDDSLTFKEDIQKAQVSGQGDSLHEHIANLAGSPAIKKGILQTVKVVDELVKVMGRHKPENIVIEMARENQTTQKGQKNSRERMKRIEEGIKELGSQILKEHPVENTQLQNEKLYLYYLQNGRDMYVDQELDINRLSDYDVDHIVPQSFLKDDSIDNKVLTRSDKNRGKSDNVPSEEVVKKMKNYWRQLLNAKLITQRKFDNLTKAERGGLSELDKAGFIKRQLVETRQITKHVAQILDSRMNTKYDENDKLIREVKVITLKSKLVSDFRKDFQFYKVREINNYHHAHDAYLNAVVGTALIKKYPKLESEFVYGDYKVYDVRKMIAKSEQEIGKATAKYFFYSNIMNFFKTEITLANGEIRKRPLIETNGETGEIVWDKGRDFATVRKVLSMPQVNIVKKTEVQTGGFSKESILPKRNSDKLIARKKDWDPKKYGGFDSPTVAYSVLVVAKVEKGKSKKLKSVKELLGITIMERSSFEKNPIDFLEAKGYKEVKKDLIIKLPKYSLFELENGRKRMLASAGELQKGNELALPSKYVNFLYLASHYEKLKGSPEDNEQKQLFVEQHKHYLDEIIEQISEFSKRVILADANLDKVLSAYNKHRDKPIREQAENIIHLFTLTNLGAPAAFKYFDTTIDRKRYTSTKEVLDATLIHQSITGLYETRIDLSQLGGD

Chain of LlCap5 (A0A1E7G0A2 1-385): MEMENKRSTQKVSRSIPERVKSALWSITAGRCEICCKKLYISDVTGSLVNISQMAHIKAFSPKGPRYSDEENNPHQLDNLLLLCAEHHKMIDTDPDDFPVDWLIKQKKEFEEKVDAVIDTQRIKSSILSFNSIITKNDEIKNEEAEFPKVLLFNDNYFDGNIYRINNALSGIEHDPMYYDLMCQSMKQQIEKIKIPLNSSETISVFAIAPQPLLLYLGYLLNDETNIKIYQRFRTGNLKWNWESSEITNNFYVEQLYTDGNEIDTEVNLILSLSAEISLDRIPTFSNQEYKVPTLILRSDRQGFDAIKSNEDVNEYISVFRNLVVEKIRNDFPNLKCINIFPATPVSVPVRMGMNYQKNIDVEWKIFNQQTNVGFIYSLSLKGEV
Chain of PsCap5 (A0A2P0QGK5 10-397 limits assumed): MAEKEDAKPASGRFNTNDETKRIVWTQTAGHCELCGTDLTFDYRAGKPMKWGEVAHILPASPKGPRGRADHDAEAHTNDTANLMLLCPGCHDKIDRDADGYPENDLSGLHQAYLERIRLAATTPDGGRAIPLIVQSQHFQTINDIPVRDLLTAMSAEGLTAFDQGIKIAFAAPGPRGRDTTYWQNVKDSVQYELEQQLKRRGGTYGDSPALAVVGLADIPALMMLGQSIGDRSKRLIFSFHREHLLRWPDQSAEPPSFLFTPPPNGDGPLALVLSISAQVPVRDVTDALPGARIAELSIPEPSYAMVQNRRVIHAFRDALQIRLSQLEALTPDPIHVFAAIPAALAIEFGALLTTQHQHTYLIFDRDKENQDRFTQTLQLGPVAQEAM
Chain of DpnI (P0A459 whole entry, looked up): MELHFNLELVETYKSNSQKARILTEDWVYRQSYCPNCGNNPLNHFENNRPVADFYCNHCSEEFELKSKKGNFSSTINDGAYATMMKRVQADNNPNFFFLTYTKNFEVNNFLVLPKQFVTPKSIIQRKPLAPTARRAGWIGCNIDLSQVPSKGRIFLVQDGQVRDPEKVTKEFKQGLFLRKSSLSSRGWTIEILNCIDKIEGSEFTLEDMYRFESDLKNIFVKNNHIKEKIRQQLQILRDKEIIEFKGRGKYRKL

With 3′,2′-cGAMP [reference compound] as the compound, how does the “bacterial growth of E. coli carrying PsCap5 plasmid after extrinsic addition of activating ligand” value [1] read?
The value was “severe restriction of bacterial growth”.

Which IC50 [2] does the source give for `NS(=O)(=O)c1ccc(CCNC(=O)CCCn2c(SCc3cc(=O)n4cc(Br)ccc4n3)nc3ccsc3c2=O)cc1` [Compound 2] here?
The IC50 was 230 ± 10 µM.

What about the “inhibition of PsCap5 in rescreening of the compound library” value [3] of the same compound?
The value was “did not noticeably inhibit PsCap5”.

For `NS(=O)(=O)c1ccc(CCNC(=O)CSc2nc3ccccc3c(=O)n2Cn2c(SCC(=O)NCCc3ccc(S(N)(=O)=O)cc3)nc3ccccc3c2=O)cc1` [Compound 4], which “inhibition of LlCap5 in biochemical screening” value ([2]; normalized DNA band intensity, threshold for activity 0.4) is on record?
The value was “inactive against LlCap5”.

And the IC50 ([3]; read-out: IC50 against PsCap5, 50 nM PsCap5, 10 nM 3′,2′-cGAMP, 37°C 15 min, ±S.E.M. of biological triplicates)?
Its IC50 is 11 ± 1 µM.

And the “rescue of E. coli from cGAMP-Cap5-induced toxicity” value [1]?
The value was “failed to rescue”.

`O=C(CCN1C(=O)c2ccccc2C1=O)NCCCCCCNC(=O)CCN1C(=O)c2ccccc2C1=O` [Compound 19] was tested. Which IC50 [2] did it give?
Its IC50 is over 100 µM.

And the “inhibition of PsCap5 in rescreening of the compound library” value [3]?
The value was “did not noticeably inhibit PsCap5”.

What does the source list for `Cc1ccc(CNC(=O)c2ccc(Cn3c(=O)c4ccccc4n(CC(=O)NCc4ccco4)c3=O)cc2)cc1` [Compound 20]?
IC50 [2]: 120 ± 60 µM; IC50 [3]: 24 ± 8 µM; inhibition of DpnI [4]: failed to inhibit; inhibition of Cas9 [5]: failed to inhibit Cas9; recovery of viable cells (bacterial population) ([1]; 0.33 mM compound 20, 0.2 mM 3′,2′-cGAMP, 37°C 3 h): ~100 fold

Which results are given for `COC(=O)C(NC(=O)C(Cc1ccc(OCc2ccccc2)cc1)NC(=O)C(Cc1ccccc1)NC(=O)CNC(=O)OCc1ccccc1)C(C)O` (stereo not shown) [Compound 22] (Cbz-GFY(Bn)T-OMe; configuration not given here)?
IC50 [2]: 58 ± 16 µM; inhibition of PsCap5 in rescreening of the compound library [3]: did not noticeably inhibit PsCap5

For `Cn1c(=O)[nH]c(=O)c2c1nc(SCCSc1nc3c(c(=O)[nH]c(=O)n3C)n1CCc1ccccc1)n2CCc1ccccc1` [Compound 36], which IC50 [2] is on record?
The IC50 was 140 ± 20 µM.

And the IC50 [3]?
The IC50 was 100 ± 20 µM.

How did the IC50 [2] turn out when `NC(=O)[C@H](Cc1ccc(O)cc1)NC(=O)[C@H](CCCCNC(=O)OCc1ccccc1)NC(=O)OCc1ccccc1` [Compound 37] was run?
The IC50 was 260 ± 70 µM.

What about the IC50 [3] of the same compound?
The IC50 was 150 ± 40 µM.
